Assay results as given in patent publication US7947728B1, “Indole and indazole analogs as glycogen synthase activators” (Hoffmann-La Roche Inc., priority 2009, dated 2011).

System: glycogen synthase
Experiment: Glycogen Synthase (GS) Assay
Format: biochemical
Conditions: for EC50: compound concentration needed to give 50% maximum activation; for GS SC200: compound concentration needed to stimulate 200% of the enzyme activity
Method: The following tests were carried out in order to determine the activity of the compounds of formula (I).
Twelve μL per well of substrate solution containing glycogen (4.32 mg/′ml), 2.67 mM UDP-glucose, 21.6 mM phospho(enol)pyruvate and 2.7 mM NADH in 30 mM glycylglycine, pH 7.3 buffer was added into a polystyrene 384-well assay plate (BD Biosciences).
Compound solutions (8 μL/well) at various concentrations (0-300 μM) were added to the assay plate (columns 5-24). Compound solution contains 30 mM glycylglycine, pH 7.3, 40 mM KCl, 20 mM MgCl2, 9.2% DMSO, with (columns 15-24) or without (columns 5-14) 20 mM glucose 6-phosphate.
Enzyme solution (12 μL/well) containing glycogen synthase (16.88 μg/ml), pyruvate kinase (0.27 mg/ml), lactate dehydrogenase (0.27 mg/ml) in 50 mM Tris-HCl, pH 8.0, 27 mM DTT and bovine serum albumin (BSA, 0.2 mg/ml) was added to the assay plate (columns 3-24). As a blank control, enzyme solution without glycogen synthase was added into the top half wells of columns 1-2. To the bottom half wells of columns 1-2 were added a known activator, glucose 6-phosphate (at final concentration 5 mM) in addition to the enzyme solution. The reaction mixture was incubated at room temperature. The assay plate was then read for absorbance at 340 nm on an Envision reader every 3 minutes up to a total of 15 minutes.
The enzyme activity (with or without compound) was calculated by the reaction rate and represented by the optical density change (δOD) per minute. Percent stimulation of glycogen synthase activity by a compound at various concentrations was calculated by the following formula: % stimulation=100*Rs/Rt,
wherein Rs is the reaction rate of the enzyme in the presence of compound and Rt is the reaction rate of the enzyme in the absence of compound.
SC200 is defined as the compound concentration that is needed to stimulate 200% of the enzyme activity. EC50 is defined as the compound concentration that is needed to give 50% maximum activation.

SMILES | EC50 [µM] | GS SC200 [µM]
COc1cc(F)c(F)cc1-c1ccc(OCc2cccc3[nH]ncc23)cc1 [Example 1, 4-(4′,5′-Difluoro-2′-methoxy-biphenyl-4-yloxymethyl)-1H-indazole] | 6.56 | 4.57
COc1cc(F)c(F)cc1-c1ccc(OCc2cccc3c2cnn3CCC(=O)O)cc1 [Example 2, 3-[4-(4′,5′-Difluoro-2′-methoxy-biphenyl-4-yloxymethyl)-indazol-1-yl]-propionic acid] | 26 | 5.52
COc1cc(F)c(F)cc1-c1ccc(OCc2ccc3cn[nH]c3c2)cc1 [Example 3, 6-(4′,5′-Difluoro-2′-methoxy-biphenyl-4-yloxymethyl)-1H-indazole] | 6 | 3.92
COc1cc(F)c(F)cc1-c1ccc(OCc2ccc3cnn(CC(=O)O)c3c2)cc1 [Example 4, [6-(4′,5′-Difluoro-2′-methoxy-biphenyl-4-yloxymethyl)-indazol-1-yl]-acetic acid] | 7 | 2.56
COc1cc(F)c(F)cc1-c1ccc(OCc2ccc3cnn(CCC(=O)O)c3c2)cc1 [Example 5, 3-[6-(4′,5′-Difluoro-2′-methoxy-biphenyl-4-yloxymethyl)-indazol-1-yl]-propionic acid] | 1.43 | 0.28
COc1cc(F)c(F)cc1-c1ccc(OCc2ccc3cc[nH]c3c2)cc1 [Example 6, 6-(4′,5′-difluoro-2′-methoxy-biphenyl-4-yloxymethyl)-1H-indole] | 5.37 | 5.3
COc1cc(F)c(F)cc1-c1ccc(OCc2ccc3ccn(CCC(=O)O)c3c2)cc1 [Example 7, 3-[6-(4′,5′-Difluoro-2′-methoxy-biphenyl-4-yloxymethyl)-indol-1-yl]-propionic Acid] | 3 | 0.6
COc1cc(F)c(F)cc1-c1ccc(OCc2ccc3ccn(CC(=O)O)c3c2)cc1 [Example 8, [6-(4′,5′-Difluoro-2′-methoxy-biphenyl-4-yloxymethyl)-indol-1-yl]-Acetic Acid] | 5.16 | 2
COc1cc(F)c(F)cc1-c1ccc(OCc2ccc3ccn(C(C)CC(=O)O)c3c2)cc1 (stereo not shown) [Example 9, 3-[6-(4′,5′-Difluoro-2′-methoxy-biphenyl-4-yloxymethyl)-indol-1-yl]-butyric Acid] | 2.01 | 0.41
COc1cc(F)c(F)cc1-c1ccc(OCc2cccc3[nH]ccc23)cc1 [Example 10, 4-(4′,5′-Difluoro-2′-methoxy-biphenyl-4-yloxymethyl)-1H-indole] | 3.88 | 2.86
COc1cc(F)c(F)cc1-c1ccc(OCc2cccc3c2ccn3C(=O)CCC(=O)O)cc1 [Example 11, 4-[4-(4′,5′-Difluoro-2′-methoxy-biphenyl-4-yloxymethyl)-indol-1-yl]-4-oxo-butyric acid] | 2.46 | 0.44
COc1cc(F)c(F)cc1-c1ccc(OCc2cccc3c2ccn3C(=O)CC(C)(C)C(=O)O)cc1 [Example 12, 4-[4-(4′,5′-Difluoro-2′-methoxy-biphenyl-4-yloxymethyl)-indol-1-yl]-2,2-dimethyl-4-oxo-butyric acid] | 3.04 | 1.19
COc1cc(F)c(F)cc1-c1ccc(OCc2cccc3c2ccn3CC(=O)O)cc1 [Example 13, [4-(4′,5′-Difluoro-2′-methoxy-biphenyl-4-yloxymethyl)-indol-1-yl]-acetic acid] | 3.12 | 0.43
COc1cc(F)c(F)cc1-c1ccc(OCc2cccc3c2ccn3CCC(=O)O)cc1 [Example 14, 3-[4-(4′,5′-Difluoro-2′-methoxy-biphenyl-4-yloxymethyl)-indol-1-yl]-propionic acid] | 5.49 | 1.46
COc1cc(F)c(F)cc1-c1ccc(OCc2cccc3c2ccn3C(C)CC(=O)O)cc1 (stereo not shown) [Example 15, 3-[4-(4′,5′-Difluoro-2′-methoxy-biphenyl-4-yloxymethyl)-indol-1-yl]-butyric acid] | 6.67 | 2.29
COc1cc(F)c(F)cc1-c1ccc(OCc2ccc3[nH]nc(N)c3c2)cc1 [Example 16, 5-(4′,5′-Difluoro-2′-methoxy-biphenyl-4-yloxymethyl)-1H-indazol-3-ylamine] | 2.79 | 0.6
Cn1nc(N)c2cc(COc3ccc(-c4cc(F)c(F)cc4F)cc3)ccc21 [Example 17, Methyl-5-(2′,4′,5′-trifluoro-biphenyl-4-yloxymethyl)-1H-indazol-3-ylamine] | 18.5 | 3.9
